Test results: US8008291B2 (Mimetica Pty Ltd, priority 2008, dated 2011)

Target: T1, human MC5R (hMC5R) (Homo sapiens, UniProt P33032)
T1 construct: purchased Perkin Elmer RBXMC5M400UA
Assay: Human MC5R radioligand binding assay (membranes, [125I] NDP-MSH displacement)
Conditions: hMC5R binding; tested as trifluoroacetate or hydrochloride salts, or free bases; read-out: MC5R radioligand IC50
Summary of the method: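 Displacement of [125I]NDP-MSH (radioiodinated in house, HPLC-purified) from hMC5R membranes by test compound measured after 1 hr incubation at 37° C.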

T1 sequence (P33032 whole entry): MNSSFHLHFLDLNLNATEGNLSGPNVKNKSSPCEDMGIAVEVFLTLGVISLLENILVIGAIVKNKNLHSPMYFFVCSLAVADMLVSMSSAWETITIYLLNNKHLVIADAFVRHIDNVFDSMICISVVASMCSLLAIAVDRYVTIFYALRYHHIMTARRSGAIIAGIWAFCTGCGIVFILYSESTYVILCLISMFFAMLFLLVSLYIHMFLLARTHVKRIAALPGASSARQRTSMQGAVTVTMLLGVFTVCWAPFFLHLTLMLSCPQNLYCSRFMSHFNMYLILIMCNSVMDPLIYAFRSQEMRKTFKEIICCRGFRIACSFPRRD

SMILES | IC50
C[C@H](CN1CC[C@@H](CNC(=O)c2ccc3ccccc3c2)N[C@@H](CCCN)C1=O)c1ccccc1 [Compound 356, N-(((3S,5S)-3-(3-aminopropyl)-2-oxo-1-((S)-2-phenylpropyl)-1,4-diazepan-5-yl)methyl)-2-naphthamide] | < 1000 nM
CC(C)[C@H](N)C(=O)NCC[C@@H]1N[C@H](CNC(=O)c2ccc(Cl)c(Cl)c2)CCN(Cc2ccc(Cl)cc2Cl)C1=O [Compound 506, N-(((3S,5S)-3-(2-((S)-2-amino-3-methylbutanamido)ethyl)-1-(2,4-dichlorobenzyl)-2-oxo-1,4-diazepan-5-yl)methyl)-3,4-dichlorobenzamide] | < 10000 nM
CC[C@H](CN1CC[C@@H](CNC(=O)c2ccc(Cl)c(Cl)c2)N[C@@H](CCNc2ccccc2)C1=O)c1ccccc1 [Compound 428, 3,4-dichloro-N-(((3S,5S)-2-oxo-3-(2-(phenylamino)ethyl)-1-((S)-2-phenylbutyl)-1,4-diazepan-5-yl)methyl)benzamide] | < 1000 nM
NCC[C@@H]1N[C@H](CNC(=O)/C=C/c2ccc(F)cc2F)CCN(CC(c2ccccc2)c2ccccc2)C1=O [Compound 401, (E)-N-(((3S,5S)-3-(2-aminoethyl)-1-(2,2-diphenylethyl)-2-oxo-1,4-diazepan-5-yl)methyl)-3-(2,4-difluorophenyl)acrylamide] | < 1000 nM
N=C(N)NCCC[C@@H]1N[C@H](CNC(=O)c2cc3ccccc3s2)CCN(CC(c2ccccc2)c2ccccc2)C1=O [Compound 135, N-(((3S,5S)-1-(2,2-diphenylethyl)-3-(3-guanidinopropyl)-2-oxo-1,4-diazepan-5-yl)methyl)benzo[b]thiophene-2-carboxamide] | < 1000 nM
NCCCC[C@@H]1N[C@H](CNC(=O)[C@H]2Cc3ccccc3CN2)CCN(CC(c2ccccc2)c2ccccc2)C1=O [Compound 128, (R)—N-(((3S,5S)-3-(4-aminobutyl)-1-(2,2-diphenylethyl)-2-oxo-1,4-diazepan-5-yl)methyl)-1,2,3,4-tetrahydroisoquinoline-3-carboxamide] | < 1000 nM
C=C(C)C(CC)CN1CC[C@@H](CNC(=O)c2ccc(Cl)c(Cl)c2)N[C@@H](CCN)C1=O (stereo partly drawn) [Compound 475, N-(((3S,5S)-3-(2-aminoethyl)-1-(2-ethyl-3-methylbut-3-enyl)-2-oxo-1,4-diazepan-5-yl)methyl)-3,4-dichlorobenzamide] | < 10000 nM
NCCC[C@@H]1N[C@H](CNC(=O)c2ccc3ccccc3c2)CCN(Cc2cc(F)cc(F)c2)C1=O [Compound 313, N-(((3S,5S)-3-(3-aminopropyl)-1-(3,5-difluorobenzyl)-2-oxo-1,4-diazepan-5-yl)methyl)-2-naphthamide] | < 10000 nM
CCCCOC(=O)NCC[C@@H]1N[C@H](CNC(=O)c2ccc3cc(Cl)ccc3c2)CCN(C[C@@H](CC)c2ccccc2)C1=O [Compound 524, butyl 2-((2S,7S)-7-((6-chloro-2-naphthamido)methyl)-3-oxo-4-((S)-2-phenylbutyl)-1,4-diazepan-2-yl)ethylcarbamate] | < 1000 nM
CC1CC(C)CC(CN2CC[C@@H](CNC(=O)c3ccc4ccccc4c3)N[C@@H](CCN)C2=O)C1 (stereo partly drawn) [Compound 376, N-(((3S,5S)-3-(2-aminoethyl)-1-((3,5-dimethylcyclohexyl)methyl)-2-oxo-1,4-diazepan-5-yl)methyl)-2-naphthamide] | < 1000 nM
N=C(N)NCCC[C@@H]1N[C@H](CNC(=O)c2ccc3ccccc3c2)CCN(CC(C(=O)Nc2ccccc2)c2ccccc2)C1=O (stereo partly drawn) [Compound 344, N-(((3S,5S)-3-(3-guanidinopropyl)-2-oxo-1-(3-oxo-2-phenyl-3-(phenylamino)propyl)-1,4-diazepan-5-yl)methyl)-2-naphthamide] | < 10000 nM
N=C(N)NCCC[C@@H]1N[C@H](CNC(=O)[C@@H]2Cc3ccccc3CN2)CCN(CC(c2ccccc2)c2ccccc2)C1=O [Compound 131, (S)—N-(((3S,5S)-1-(2,2-diphenylethyl)-3-(3-guanidinopropyl)-2-oxo-1,4-diazepan-5-yl)methyl)-1,2,3,4-tetrahydroisoquinoline-3-carboxamide] | < 10000 nM
CC[C@H](CN1CC[C@@H](CN(Cc2ccc(Cl)c(Cl)c2)C(C)=O)N[C@@H](CCN2CCCCC2)C1=O)c1ccccc1 [Compound 519] | < 10000 nM
N=C(N)NCCC[C@@H]1N[C@H](CNC(=O)c2ccc3ccccc3c2)CCN(CCC2CCCCC2)C1=O [Compound 242, N-(((3S,5S)-1-(2-cyclohexylethyl)-3-(3-guanidinopropyl)-2-oxo-1,4-diazepan-5-yl)methyl)-2-naphthamide] | < 1000 nM
CN(C)C(=O)C(CN1CC[C@@H](CNC(=O)c2ccc3ccccc3c2)N[C@@H](CCCNC(=N)N)C1=O)c1ccccc1 (stereo partly drawn) [Compound 307, N-(((3S,5S)-1-(3-(dimethylamino)-3-oxo-2-phenylpropyl)-3-(3-guanidinopropyl)-2-oxo-1,4-diazepan-5-yl)methyl)-2-naphthamide] | < 10000 nM
N=C(N)NCCC[C@@H]1N[C@H](CNC(=O)c2ccc3ccccc3c2)CCN(c2ccc3ccccc3c2)C1=O [Compound 226, N-(((3S,5S)-3-(3-guanidinopropyl)-1-(naphthalen-2-yl)-2-oxo-1,4-diazepan-5-yl)methyl)-2-naphthamide] | < 10000 nM
N=C(N)NCCC[C@@H]1N[C@H](CNC(=O)c2ccc3ccccc3c2)CCN(Cc2ccccc2)C1=O [Compound 249, N-(((3S,5S)-1-benzyl-3-(3-guanidinopropyl)-2-oxo-1,4-diazepan-5-yl)methyl)-2-naphthamide] | < 10000 nM
NCC[C@@H]1N[C@H](CNC(=O)CCc2ccc(Cl)cc2)CCN(CC(c2ccccc2)c2ccccc2)C1=O [Compound 392, N-(((3S,5S)-3-(2-aminoethyl)-1-(2,2-diphenylethyl)-2-oxo-1,4-diazepan-5-yl)methyl)-3-(4-chlorophenyl)propanamide] | < 10000 nM
O=C(O)c1ccc2cc(C(=O)NC[C@@H]3CCN(CC(c4ccccc4)c4ccccc4)C(=O)[C@H](CCN4CCCCC4)N3)ccc2c1 [Compound 473, 6-(((3S,5S)-1-(2,2-diphenylethyl)-2-oxo-3-(2-(piperidin-1-yl)ethyl)-1,4-diazepan-5-yl)methylcarbamoyl)-2-naphthoic acid] | < 1000 nM

Results, then the compound that gave them:

IC50 | SMILES
< 100 nM | CCC(CN1CC[C@@H](CNC(=O)c2ccc3cc(Cl)ccc3c2)N[C@@H](CCN2CCCCC2)C1=O)C1CC1 (stereo partly drawn) [Compound 488, 6-chloro-N-(((3S,5S)-1-(2-cyclopropylbutyl)-2-oxo-3-(2-(piperidin-1-yl)ethyl)-1,4-diazepan-5-yl)methyl)-2-naphthamide]
< 100 nM | C=C(C)[C@@H](CC)CN1CC[C@@H](CNC(=O)c2ccc3cc(Cl)ccc3c2)N[C@@H](CCN2CCCCC2)C1=O [Compound 478, 6-chloro-N-(((3S,5S)-1-((R)-2-ethyl-3-methylbut-3-enyl)-2-oxo-3-(2-(piperidin-1-yl)ethyl)-1,4-diazepan-5-yl)methyl)-2-naphthamide]
< 100 nM | CC[C@H](CN1CC[C@@H](CNC(=O)c2ccc(Cl)c(Cl)c2)N[C@@H](CCN2CCN(C)CC2)C1=O)c1ccccc1 [Compound 431, 3,4-dichloro-N-(((3S,5S)-3-(2-(4-methylpiperazin-1-yl)ethyl)-2-oxo-1-((S)-2-phenylbutyl)-1,4-diazepan-5-yl)methyl)benzamide]
< 100 nM | CC[C@H](CN1CC[C@@H](CNC(=O)c2ccc(Cl)c(Cl)c2)N[C@@H](CCN2CCCCC2)C1=O)C(C)C [Compound 462, 3,4-dichloro-N-(((3S,5S)-1-((S)-2-ethyl-3-methylbutyl)-2-oxo-3-(2-(piperidin-1-yl)ethyl)-1,4-diazepan-5-yl)methyl)benzamide]
< 100 nM | CC[C@H](CN1CC[C@@H](CNC(=O)c2ccc3cc(Cl)ccc3c2)N[C@@H](CNC(C)C)C1=O)c1ccccc1 [Compound 499, 6-chloro-N-(((3S,5S)-3-((isopropylamino)methyl)-2-oxo-1-((S)-2-phenylbutyl)-1,4-diazepan-5-yl)methyl)-2-naphthamide]
< 10 nM | CC[C@H](CN1CC[C@@H](CNC(=O)c2ccc3cc(Cl)ccc3c2)N[C@@H](CCNC(=N)NC(C)C)C1=O)c1ccccc1 [Compound 474, 6-chloro-N-(((3S,5S)-3-(2-(3-isopropylguanidino)ethyl)-2-oxo-1-((S)-2-phenylbutyl)-1,4-diazepan-5-yl)methyl)-2-naphthamide]
< 100 nM | CC[C@H](CN1CC[C@@H](CNC(=O)/C=C/c2ccc(Cl)cc2)N[C@@H](CCN2CCCC2)C1=O)c1ccccc1 [Compound 407, (E)-3-(4-chlorophenyl)-N-(((3S,5S)-2-oxo-1-((S)-2-phenylbutyl)-3-(2-(pyrrolidin-1-yl)ethyl)-1,4-diazepan-5-yl)methyl)acrylamide]
< 100 nM | O=C(CCc1ccc(Cl)cc1)NC[C@@H]1CCN(CC(c2ccccc2)c2ccccc2)C(=O)[C@H](CCN2CCCCC2)N1 [Compound 391, 3-(4-chlorophenyl)-N-(((3S,5S)-1-(2,2-diphenylethyl)-2-oxo-3-(2-(piperidin-1-yl)ethyl)-1,4-diazepan-5-yl)methyl)propanamide]
< 100 nM | CC[C@H](CN1CC[C@@H](CNC(=O)c2ccc3cc(Cl)ccc3c2)N[C@@H](CCNS(=O)(=O)C(C)C)C1=O)c1ccccc1 [Compound 523, 6-chloro-N-(((3S,5S)-3-(2-(1-methylethylsulfonamido)ethyl)-2-oxo-1-((S)-2-phenylbutyl)-1,4-diazepan-5-yl)methyl)-2-naphthamide]
< 100 nM | CC[C@H](CN1CC[C@@H](CNC(=O)c2ccc(Cl)c(Cl)c2)N[C@@H](CCN(C)C(C)(C)C)C1=O)c1ccccc1 [Compound 454, N-(((3S,5S)-3-(2-(tert-butyl(methyl)amino)ethyl)-2-oxo-1-((S)-2-phenylbutyl)-1,4-diazepan-5-yl)methyl)-3,4-dichlorobenzamide]
< 10 nM | CC[C@H](CN1CC[C@@H](CNC(=O)c2ccc(Cl)c(Cl)c2)N[C@@H](CCN2CCC(C)CC2)C1=O)c1ccccc1 [Compound 446, 3,4-dichloro-N-(((3S,5S)-3-(2-(4-methylpiperidin-1-yl)ethyl)-2-oxo-1-((S)-2-phenylbutyl)-1,4-diazepan-5-yl)methyl)benzamide]
